Assay results taken from patent US20220281848A1, “PYRAZOLE-SUBSTITUTED PYRROLIDINONES AS HERBICIDES” (FMC Corporation, priority 2019, published 2022).

Experiments:
Type in all cases: in vivo
maize = experiment: Test D pre-emergence, maize seed treated with a herbicide safener; details: ZEAMX, preemergent, 20 DAA
Method in brief: (§1)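 Safener-seed-treated maize and wheat were sprayed with an emulsifiable formulation diluted in 0.2% v/v adjuvant solution, one day after sowing (pre-emergence) or after about 12 days (post-emergence). Plants were grown in a glasshouse at 24/18 or 20/16 °C with 16 h light; damage was scored 0–100 at 20 DAA (pre) or 15 d (post).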

[1] = tested on: barnyardgrass (Echinochloa crus-galli, ECHCG); experiment: Test A post-emergence, barnyardgrass; details: after 13 d
Method in brief: (§2)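 Visual damage rating (0 no damage to 100 total damage) was made 13 d after spraying. The spray was 15.625, 62.5 or 250 g/ha in 50:50 acetone/water with 0.5% Tween 20, applied to 8-day-old glasshouse plants kept at 24/16° C, 14 h light and 65% humidity.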

corn (Zea mays, ZEAMX) = experiment: Test A pre-emergence, corn; details: after 13 d
Method in brief: (§3)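 After sowing in pots and a single day of glasshouse cultivation, the soil was treated with an aqueous spray of the compound (acetone/water 50:50, 0.5% Tween 20) giving 15.625, 62.5 or 250 g/ha. Evaluation after 13 d used a scale where 0 meant no damage and 100 total damage.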

[2] = tested on: redroot pigweed (Amaranthus retroflexus, AMARE); experiment: Test A post-emergence, redroot pigweed; details: after 13 d
Method in brief: as §2

wheat = experiment: Test D pre-emergence, wheat seed treated with a herbicide safener; details: 100=total damage, 0=no damage
Method in brief: as §1

[3] = tested on: giant foxtail (Setaria faberi, SETFA); experiment: Test A pre-emergence, giant foxtail; details: after 13 d
Method in brief: as §3

[4] = tested on: giant foxtail (Setaria faberi, SETFA); experiment: Test A post-emergence, giant foxtail; details: after 13 d
Method in brief: as §2

[5] = tested on: velvetleaf (Abutilon theophrasti, ABUTH); experiment: Test A post-emergence, velvetleaf; details: after 13 d
Method in brief: as §2

[6] = tested on: velvetleaf (Abutilon theophrasti, ABUTH); experiment: Test A pre-emergence, velvetleaf; details: after 13 d
Method in brief: as §3

[7] = tested on: redroot pigweed (Amaranthus retroflexus, AMARE); experiment: Test A pre-emergence, redroot pigweed; details: after 13 d
Method in brief: as §3

**Q.** Which results are given for `CN1CC(c2cnn(C)c2C(F)(F)F)C(C(=O)Nc2cccc(F)c2F)C1=O` (racemic) [Compound 25]?
**A.** damage to plant (100=total damage to plant; 0=no damage to plant), ZEAMX (maize; rate 15): 0; damage to plant (100=total damage to plant; 0=no damage to plant), ZEAMX (maize; rate 30): 0; damage to plant (100=total damage to plant; 0=no damage to plant), ZEAMX (maize; rate 60): 0; damage to plant (100=total damage to plant; 0=no damage to plant), ZEAMX (maize; rate 130): 0; damage to plant (100=total damage to plant; 0=no damage to plant), ZEAMX (maize; rate 250): 0; damage to plant (100=total damage to plant; 0=no damage to plant), ZEAMX (maize; rate 500): 0; damage to plant (100=total damage; 0=no damage) ECHCG ([1]; Post-Emergence at 15.625 g/ha): 30; damage to plant (100=total damage; 0=no damage) ECHCG ([1]; Post-Emergence at 62.5 g/ha): 70; damage to plant (100=total damage; 0=no damage) ECHCG ([1]; Post-Emergence at 250 g/ha): 80; damage to plant (100=total damage; 0=no damage) ZEAMX (corn (Zea mays, ZEAMX); Pre-Emergence at 15.625 g/ha): 0; damage to plant (100=total damage; 0=no damage) ZEAMX (corn (Zea mays, ZEAMX); Pre-Emergence at 62.5 g/ha): 0; damage to plant (100=total damage; 0=no damage) ZEAMX (corn (Zea mays, ZEAMX); Pre-Emergence at 250 g/ha): 20; damage to plant (100=total damage; 0=no damage) AMARE ([2]; Post-Emergence at 15.625 g/ha): 0; damage to plant (100=total damage; 0=no damage) AMARE ([2]; Post-Emergence at 62.5 g/ha): 0; damage to plant (100=total damage; 0=no damage) AMARE ([2]; Post-Emergence at 250 g/ha): 0; damage to plant, TRZAW (wheat; rate 15, 20 DAA): 0; damage to plant, TRZAW (wheat; rate 30, 20 DAA): 0; damage to plant, TRZAW (wheat; rate 60, 20 DAA): 0; damage to plant, TRZAW (wheat; rate 130, 20 DAA): 0; damage to plant, TRZAW (wheat; rate 250, 20 DAA): 0; damage to plant, TRZAW (wheat; rate 500, 20 DAA): 0; damage to plant (100=total damage; 0=no damage) SETFA ([3]; Pre-Emergence at 15.625 g/ha): 80; damage to plant (100=total damage; 0=no damage) SETFA ([3]; Pre-Emergence at 62.5 g/ha): 90; damage to plant (100=total damage; 0=no damage) SETFA ([3]; Pre-Emergence at 250 g/ha): 100; damage to plant (100=total damage; 0=no damage) SETFA ([4]; Post-Emergence at 15.625 g/ha): 30; damage to plant (100=total damage; 0=no damage) SETFA ([4]; Post-Emergence at 62.5 g/ha): 70; damage to plant (100=total damage; 0=no damage) SETFA ([4]; Post-Emergence at 250 g/ha): 80; damage to plant (100=total damage; 0=no damage) ABUTH ([5]; Post-Emergence at 15.625 g/ha): 0; damage to plant (100=total damage; 0=no damage) ABUTH ([5]; Post-Emergence at 62.5 g/ha): 0; damage to plant (100=total damage; 0=no damage) ABUTH ([5]; Post-Emergence at 250 g/ha): 0; damage to plant (100=total damage; 0=no damage) ABUTH ([6]; Pre-Emergence at 15.625 g/ha): 0; damage to plant (100=total damage; 0=no damage) ABUTH ([6]; Pre-Emergence at 62.5 g/ha): 10; damage to plant (100=total damage; 0=no damage) ABUTH ([6]; Pre-Emergence at 250 g/ha): 40; damage to plant (100=total damage; 0=no damage) AMARE ([7]; Pre-Emergence at 15.625 g/ha): 0; damage to plant (100=total damage; 0=no damage) AMARE ([7]; Pre-Emergence at 62.5 g/ha): 0; damage to plant (100=total damage; 0=no damage) AMARE ([7]; Pre-Emergence at 250 g/ha): 0
